Experimental data from patent US11882828B2, “Mosquito vector control compositions, methods and products utilizing same” (priority 2015, dated 2024).

Experiments:
[1] = test system: Aedes aegypti (Yellow fever mosquito); assay: whole plant or invertebrate; conditions: Aedes aegypti
Procedure: […] Once the deposits were dry, five non-blood fed adult female Aedes aegypti (between two to five days old) were added to each well, and sustained with a 10% sucrose solution in a cotton wool plug. Assessment of the knockdown after 1 hour, and mortality after 48 hours was carried out.
(§1) In case of multiple tests, the mean value is reported.

An. Arabiensis Ndjamina = assay: Example B4: cross resistance study, 6-well plate; format: in vivo
Procedure: (§2) In each study, a set of plates were infested with a known insecticide susceptible strain of mosquitoes from the same genera as the resistant strains.
(§3) Assessment of the knockdown after 60 minutes and mortality after 24 hours was carried out. Each treatment was replicated a minimum of four times, with the mean knockdown or mortality recorded.
(§4) A comparison of the knockdown and mortality of the resistant strain of mosquitoes was made to that of the susceptible to identify evidence of cross resistance.

An. stephensi [2] = assay: Example B4: cross resistance study, 6-well plate; format: in vivo
Procedure: as §2, §3, §4

An. Gambiae Kisumu rdl = assay: Example B4: cross resistance study, 6-well plate; format: in vivo
Procedure: as §2, §3, §4

An. Arabiensis Moz sus = assay: Example B4: cross resistance study, 6-well plate; format: in vivo
Procedure: as §2, §3, §4

Ae. aegypti Caymon = assay: Example B4: cross resistance study, 6-well plate; format: in vivo
Procedure: as §2, §3, §4

Ae. Aegypti New Orleans = assay: Example B4: cross resistance study, 6-well plate; format: in vivo
Procedure: as §2, §3, §4

An. Gambiae Tiassalé [3] = assay: Example B4: cross resistance study, 6-well plate; format: in vivo
Procedure: as §2, §3, §4

An. Gambiae Kisumu sus [4] = assay: Example B4: cross resistance study, 6-well plate; format: in vivo
Procedure: as §2, §3, §4

An. stephensi [5] = assay: Example B5: bottle based cross resistance study (CDC bottle assay); format: in vivo
Procedure: (§5) Based on the “CDC bottle assay” (described at http://www.cdc.gov/malaria/resources/pdf/fsp/ir_manual/ir_cdc_bioassay_en.pdf) 1 ml of ethanol containing a test compound at a defined concentration was added to a 250 ml glass bottle and the bottles were placed on a rolling table to coat the inner surfaces as the solvent evaporated. Once dry, twenty five non-blood fed adult female mosquitoes of the appropriate species and strains (each three day old) were aspirated from the stock culture and gently blown into the exposure bottles. The lid of the bottle was replaced and the bottle placed upright out of direct sun light under standard culture conditions, nominally 28C and 60-80% relative humidity.
(§6) A stopwatch was started, and the assessment of the knock-down were made after 15 minutes and 60 minutes. A mosquito was said to be knocked down if it was unable to stand, following the CDC definition. The bottles were replaced in an upright position when not being assessed.
(§7) After one hour the mosquitoes were carefully removed from the bottle with an aspirator and placed in a recovery cup. The mosquitoes were supplied with a 10% sucrose solution on a cotton wool bung, and stored under culture conditions. Assessments of the mortality were made after 24 hours.
(§8) Each treatment was replicated a minimum of four times, with the mean knockdown or mortality recorded. In each study, a set of bottles was infested with a known insecticide susceptible strain of mosquitoes from the same genera as the resistant strains.

An. Gambiae Tiassalé [6] = assay: as above; format: in vivo
Procedure: as §5, §6, §7, §8

An. Gambiae Kisumu sus [7] = assay: as above; format: in vivo
Procedure: as §5, §6, §7, §8

Aedes aegypti [8] = assay: Example B7: evaluation of insecticide impregnated polymer surfaces; format: in vivo; conditions: AI content 2 wt %, polymer 4 to 6 weeks old, after one hour
Description: (§9) Preparation of polymeric sheets: Certain methoxyacrylate were Impregnated into three polymers: LDPE (low density polyethylene), HDPE (high density polyethylene) and PP (polypropylene) in different concentrations by mixing the respective polymer with a compound at high temperatures and the resultant polymeric material were then mould into thin discs or plaques.
(§10) Twenty four hours prior to the relevant assessment intervals, three to five day old non-blood fed adult mosquitoes were taken from the culture and lightly anaesthetised with carbon dioxide. Ten females were selected and placed in a 250 ml plastic cup, retained with a net lid, provided with a 10% sucrose solution soaked in a cotton wool bung and held under culturing environmental conditions.
(§11) After twenty four hours, impregnated polymer sheets (measuring about 150 mm in diameter and about 0.1 mm in thickness) were removed from storage and wrapped around the glazed side of an 11 cm ceramic tile and held in place with an elastic band. A cup of the pre-selected mosquitoes were again lightly anaesthetised with carbon dioxide and transferred from the holding cup to the base of a 9 cm plastic Petri dish. The relevant impregnated polymer sheet was placed over the Petri dish and held in place with an elastic band. Once the mosquitoes had recovered from the anaesthetic, ca. 1 minute, the impregnated polymer sheet was placed on a holding rack, such that treated side was at an angle of […] to the horizontal.
(§12) After one hour an assessment of mosquito knockdown was made. A mosquito was said to be knocked down if it was unable to right itself once it had fallen over. The mosquitoes were lightly anaesthetised again, and removed from the Petri dish exposure chamber and returned to the holding cups. The mosquitoes were supplied with a 10% sucrose solution soaked in a cotton wool bung and held under culturing environmental conditions. An assessment of mortality was made 24 hours after exposure. A mosquito was said to be dead if it is unable to right itself once it had fallen over.

Anopheles stephensi [9] = assay: as above; format: in vivo; conditions: AI content 2 wt %, after one hour
Description: as §9, §10, §11, §12

Aedes aegypti [10] = assay: whole plant or invertebrate; conditions: Aedes aegypti, 48 h
Procedure: (§13) The individual wells of six (6) well tissue culture plates were treated with 250 μl of an ethanol solution containing a test compound at a defined concentration. Once the deposits were dry, ten non-blood fed adult female Aedes aegypti or Anopheles stephensi (each between two to five day old) were added to each well, and sustained with a 10% sucrose solution in a cotton wool plug.
(§14) Assessment of the mortality was carried out at 48 hours.
(§15) Each treatment was replicated twice, with the mean mortality recorded.

Anopheles stephensi [11] = assay: whole plant or invertebrate; conditions: Anopheles stephensi, 48 h
Procedure: as §13, §14, §15

[12] = test system: Anopheles stephensi (Indian malaria mosquito); assay: whole plant or invertebrate; conditions: Anopheles stephensi
Procedure: […] Once the deposits were dry, five non-blood fed adult female Anopheles stephensi (between two to five days old) were added to each well, and sustained with a 10% sucrose solution in a cotton wool plug. Assessment of the knockdown after 1 hour, and mortality after 48 hours was carried out.
as §1

## CO/C=C(/C(=O)OC)c1ccccc1Oc1nnc(C(F)(F)F)s1 [Compound 6, Methyl (E)-3-methoxy-2-[2-[[5-(trifluoromethyl)-1,3,4-thiadiazol-2-yl]oxy]phenyl]-prop-2-enoate]
[1]; 1 h, read-out: Knockdown
  pest or weed control at 20 ppm: 100%
[1]; 48 h
  mortality at 20 ppm: 100%
An. Arabiensis Ndjamina; 2.00 ppm, after 60 minutes, Ndjamina
  Knockdown: 100%
An. Arabiensis Ndjamina; Anopheles arabiensis, 24 h
  mortality at 2 ppm: 100%
An. stephensi [2]; 2.00 ppm, after 60 minutes, An. stephensi
  Knockdown: 100%
An. stephensi [2]; Anopheles stephensi, 24 h
  mortality at 2 ppm: 100%
An. Gambiae Kisumu rdl; 2.00 ppm, after 60 minutes, Kisumu rdl
  Knockdown: 78%
An. Gambiae Kisumu rdl; Anopheles gambiae, 24 h
  mortality at 2 ppm: 89%
An. Arabiensis Moz sus; 2.00 ppm, after 60 minutes, Moz sus
  Knockdown: 90%
An. Arabiensis Moz sus; Anopheles arabiensis, 24 h
  mortality at 2 ppm: 100%
Ae. aegypti Caymon; 2.00 ppm, after 60 minutes, Caymon
  Knockdown: 5%
Ae. aegypti Caymon; Aedes aegypti, 24 h
  mortality at 2 ppm: 63%
Ae. Aegypti New Orleans; 2.00 ppm, after 60 minutes, New Orleans
  Knockdown: 95%
Ae. Aegypti New Orleans; Aedes aegypti, 24 h
  mortality at 2 ppm: 100%
An. Gambiae Tiassalé [3]; 2.00 ppm, after 60 minutes, Tiassalé
  Knockdown: 84%
An. Gambiae Tiassalé [3]; Anopheles gambiae, 24 h
  mortality at 2 ppm: 94%
An. Gambiae Kisumu sus [4]; 2.00 ppm, after 60 minutes, Kisumu sus
  Knockdown: 86%
An. Gambiae Kisumu sus [4]; Anopheles gambiae, 24 h
  mortality at 2 ppm: 100%
An. stephensi [5]; 20 ppm, bottle, An. stephensi
  Knockdown (%) at 15 mins: 83%
  Knockdown (%) at 60 mins: 100%
An. stephensi [5]; Anopheles stephensi
  mortality at 20 ppm: 100%
An. Gambiae Tiassalé [6]; 20 ppm, bottle, Tiassalé
  Knockdown (%) at 15 mins: 93%
  Knockdown (%) at 60 mins: 98%
An. Gambiae Tiassalé [6]; Anopheles gambiae
  mortality at 20 ppm: 91%
An. Gambiae Kisumu sus [7]; 20 ppm, bottle, Kisumu sus
  Knockdown (%) at 15 mins: 100%
  Knockdown (%) at 60 mins: 100%
An. Gambiae Kisumu sus [7]; Anopheles gambiae
  mortality at 20 ppm: 100%
Aedes aegypti [8]; HDPE
  knock-down: 87%
Aedes aegypti [8]; LDPE
  knock-down: 100%
Aedes aegypti [8]; PP
  knock-down: 83%
Anopheles stephensi [9]; HDPE, polymer 4 to 6 weeks old
  knock-down: 87%
Anopheles stephensi [9]; HDPE, polymer 6 to 8 weeks old
  knock-down: 100%
Anopheles stephensi [9]; LDPE, polymer 4 to 6 weeks old
  knock-down: 97%
Anopheles stephensi [9]; LDPE, polymer 6 to 8 weeks old
  knock-down: 100%
Anopheles stephensi [9]; PP, polymer 4 to 6 weeks old
  knock-down: 100%
Anopheles stephensi [9]; PP, polymer 6 to 8 weeks old
  knock-down: 90%
Aedes aegypti [10]
  mortality at 5 ppm: 66%
Anopheles stephensi [11]
  mortality at 5 ppm: 98%
[12]; 1 h, read-out: Knockdown
  pest or weed control at 20 ppm: 100%
[12]; 48 h
  mortality at 20 ppm: 100%
